Publication PMC6891695, “Evaluation of Antifouling Potential and Ecotoxicity of Secondary Metabolites Derived from Red Algae of the Genus Laurencia” (Marine Drugs, 2019)
Where two headings read alike, the source gives them in different places.

Experiments:
in vivo = type: in vivo; conditions: Amphibalanus amphitrite, in vivo, read-out: LC50 Mortality; for LC50 at 24 h: 24 h exposure; for LC50 at 48 h: 48 h exposure; for LC50 at 72 h: 72 h exposure
Protocol: (§1) Adult A. amphitrite (Cirripedia, Balanidae) were collected from boat docks at Port Mikrolimano and Floisvos, Athens, Greece. Animals were cleaned of epibionts with a small hard brush and meticulously identified as individuals of the species. Adult barnacles were kept in separate aerated glass tanks (20 L) containing 200-μm filtered natural seawater at 27 °C and a 12:12 L:D photoperiod. Tanks were fed with 24-h hatched Artemia sp. (Branchiopoda) nauplii and Tetraselmis suecica (Chlorodendrophyceae) and Skeletonema costatum (Bacillariophyceae) algae each day and seawater was changed on alternate days. Upon stress to induce oviposition (exposure to air for 24 h or immersion in fresh water for 5 h), adults were returned to seawater for larval release. Hatched nauplii were attracted to a point light source, collected and placed into a beaker containing 2 or 3 L of 0.7 μm GF/F (GE Healthcare, Little Chalfont, UK )-filtered natural seawater at a density of approximately 1–2 nauplii/mL with gentle aeration. Nauplii were maintained at 27 °C at a 12:12 L:D photoperiod on a diet of C. gracilis (Bacillariophyceae) provided at a density of 2 × 10^5 cells/mL. Cultured in these conditions, nauplii metamorphosed to cyprids in 5 days. Aliquots of these cyprids were collected with a wide-mouthed Pasteur pipette and aged at 4 °C for 1 day prior to use in settlement assays. Only batches of cyprids that were active and had numerous oil cells, representing energy reserves, were used in settlement assays.
(§2) Assays were conducted by adding 10 cyprids into individual wells of a 24-well polystyrene sterile microplate (Orange Scientific, Braine l’Alleud, Belgium) with 2 mL of artificial sea water (ASW) (25‰) and various concentrations of the chemical compounds as listed in Table 1. These experiments were repeated at least three times with four replicates for each concentration of any given compound (n = 120 cyprids/compound). Stock solutions for all compounds were prepared in methanol (Scharlab, Barcelona, Spain) and serial dilutions were prepared in 0.7 μm (GF/F, GE Healthcare, Little Chalfont, UK), filtered sea water to have a final concentration of 2.5% methanol in each assay solution. Plates were covered and sealed with Parafilm® to avoid evaporation and incubated at 25 °C away from any light source and examined after 24, 48 and 72 h. Each animal was inspected under a stereomicroscope and its condition was recorded. […] Both permanently attached and metamorphosed individuals were counted as settled or juveniles. The remainder were counted as ‘no metamorphosis’, i.e. animals that responded to light touch and were still cyprids at the end of the experiments with no overt signs of metamorphosis.
(§3) For EC50 or IC50 (the concentration that results in 50% stimulation or inhibition relative to the control) calculations in GraphPad Prism v.6, all data were fitted to the curve according to the following models for normalized response: Y = 100/(1 + 10^((X − LogIC50))) or Y = 100/(1 + 10^((LogEC50 − X))) depending on the trend of the curve.

cyprids of A. amphitrite = experiment: whole plant or invertebrate; type: in vivo; conditions: for EC50 / IC50: Amphibalanus amphitrite; for EC50: read-out: EC50 No Metamorphosis; for IC50: read-out: IC50 Settlement; for toxic effect on cyprids: in vivo
Protocol: as §1, §2, §3

## C=C1CC[C@@](C)(c2ccc(C)cc2)[C@H]1C [Compound 1, laurene]
In vivo
  LC50 at 24 h: 26 µM
  LC50 at 48 h: 230 µM
  LC50 at 72 h: 29.5 µM
Cyprids of A. amphitrite; 24 h
  EC50: 38 µM
  IC50: 27900 nM
Cyprids of A. amphitrite; 48 h
  IC50: 14600 nM
Cyprids of A. amphitrite; 72 h
  IC50: 16200 nM

## C=C1CC[C@@](C)(c2ccc(C)cc2OC(C)=O)[C@H]1C [Compound 2, debromoallolaurinterol acetate]
In vivo
  LC50 at 24 h: > 1000 µM
  LC50 at 48 h: 790 µM
  LC50 at 72 h: 191 µM
Cyprids of A. amphitrite; 24 h
  EC50: 44 µM
  IC50: 2020 nM
Cyprids of A. amphitrite; 48 h
  EC50: 38.2 µM
  IC50: 18100 nM
Cyprids of A. amphitrite; 72 h
  EC50: 36.5 µM
  IC50: 19800 nM

## C=C1CC[C@@](C)(c2cc(Br)c(C)cc2OC(C)=O)[C@H]1C [Compound 3, allolaurinterol acetate]
In vivo
  LC50 at 24 h: 66.1 µM
  LC50 at 48 h: 382 µM
  LC50 at 72 h: 269 µM
Cyprids of A. amphitrite; 24 h
  IC50: 1040 nM
Cyprids of A. amphitrite; 48 h
  EC50: 80.9 µM
  IC50: 1800 nM
Cyprids of A. amphitrite; 72 h
  EC50: 109 µM
  IC50: 2000 nM

## Cc1cc2c(cc1Br)C1(C)CCC(C)(O2)C1C (centres unmarked) [Compound 5, filiformin]
In vivo
  LC50 at 24 h: 33.1 µM
Cyprids of A. amphitrite; 24 h
  EC50: 27 µM
  IC50: 2260 nM
Cyprids of A. amphitrite; 48 h
  EC50: 0.001 µM
  IC50: 5450 nM
Cyprids of A. amphitrite; 72 h
  EC50: 0.287 µM
  IC50: 12900 nM

## Cc1cc(O)c(C2(C)CCC3CC32C)cc1Br (centres unmarked) [Compound 6, laurinterol]
In vivo
  LC50 at 24 h: 12.3 µM
  LC50 at 48 h: 5.29 µM
  LC50 at 72 h: 2.31 µM
Cyprids of A. amphitrite; 24 h
  EC50: 28.3 µM
  IC50: 2420 nM
Cyprids of A. amphitrite; 48 h
  EC50: 10.8 µM
  IC50: 2220 nM
Cyprids of A. amphitrite; 72 h
  EC50: 15 µM
  IC50: 1270 nM
Cyprids of A. amphitrite
  toxic effect on cyprids: obvious toxic effect on cyprids

## CC(C)[C@H]1CC(C)(C)[C@@H](O)C2=C1CC[C@H]2C [Compound 7, epibrasilenol]
In vivo
  LC50 at 24 h: 24.8 µM
  LC50 at 48 h: 23.4 µM
  LC50 at 72 h: 25 µM
Cyprids of A. amphitrite; 24 h
  EC50: 25.4 µM
  IC50: 17500 nM
Cyprids of A. amphitrite; 48 h
  EC50: 21.7 µM
  IC50: 17700 nM
Cyprids of A. amphitrite; 72 h
  EC50: 53.2 µM
  IC50: 10300 nM

## CC(C)C1=C2CCC(C)C2CC(C)(C)C1O (centres unmarked) [Compound 8, 4-hydroxy-5-brasilene]
In vivo
  LC50 at 24 h: 7.76 µM
  LC50 at 48 h: 7.38 µM
  LC50 at 72 h: 5.93 µM
Cyprids of A. amphitrite; 24 h
  EC50: 6.81 µM
  IC50: 15800 nM
Cyprids of A. amphitrite; 48 h
  EC50: 5.01 µM
  IC50: 17500 nM
Cyprids of A. amphitrite; 72 h
  EC50: 5.42 µM
  IC50: 6950 nM
Cyprids of A. amphitrite
  toxic effect on cyprids: obvious toxic effect on cyprids

## CC1=CC[C@@]2(C)C(=C(C)C(=O)[C@@H](O)[C@@H]2C)CC1 [Compound 10, perforenone A]
In vivo
  LC50 at 24 h: 28.8 µM
  LC50 at 48 h: 28.5 µM
  LC50 at 72 h: 28.8 µM
Cyprids of A. amphitrite; 24 h
  EC50: 39.3 µM
  IC50: 5240 nM
Cyprids of A. amphitrite; 48 h
  EC50: 71 µM
  IC50: 662 nM
Cyprids of A. amphitrite; 72 h
  EC50: 57.2 µM
  IC50: 4660 nM

## C=CC(C)(O)CC[C@H](Br)[C@@]1(C)CC[C@H](Br)C(C)(C)O1 (some centres unmarked) [Compound 13, obtusenol]
In vivo
  LC50 at 24 h: 29.8 µM
  LC50 at 48 h: 849 µM
  LC50 at 72 h: 8.15 µM
Cyprids of A. amphitrite; 24 h
  EC50: 46.4 µM
  IC50: 1490 nM
Cyprids of A. amphitrite; 48 h
  EC50: 64.7 µM
  IC50: 1060 nM
Cyprids of A. amphitrite; 72 h
  EC50: 78.9 µM
  IC50: 1020 nM

## CC(=O)OCC(Br)C1(C)CC=C2C(C1)C(O)CC1C2(C)CC(OC(C)=O)C2CC21C (centres unmarked) [Compound 15, deoxyparguerol 16-acetate]
In vivo
  LC50 at 24 h: 31.7 µM
  LC50 at 48 h: 33.4 µM
  LC50 at 72 h: 34.6 µM
Cyprids of A. amphitrite; 24 h
  EC50: 63.6 µM
  IC50: 2840 nM
Cyprids of A. amphitrite; 48 h
  EC50: 55.1 µM
  IC50: 7020 nM
Cyprids of A. amphitrite; 72 h
  EC50: 73 µM
  IC50: 5370 nM

## C=CC(C)(O)CCC1C(=C)CCC(Br)C1(C)CCC(O)C(C)(C)Cl (centres unmarked) [Compound 16]
In vivo
  LC50 at 24 h: > 1000 µM
  LC50 at 48 h: > 1000 µM
  LC50 at 72 h: > 1000 µM
Cyprids of A. amphitrite; 24 h
  EC50: 58.3 µM
  IC50: 1420 nM
Cyprids of A. amphitrite; 48 h
  EC50: 49.1 µM
  IC50: 1960 nM
Cyprids of A. amphitrite; 72 h
  EC50: 58.5 µM
  IC50: 2200 nM

## C=CC(C)(O)CCC1C(=C)CCC(Br)C1(C)CCC(Br)C(C)(C)O (centres unmarked) [Compound 17]
In vivo
  LC50 at 72 h: > 1000 µM
Cyprids of A. amphitrite; 24 h
  EC50: 0.057 µM
  IC50: 634 nM
Cyprids of A. amphitrite; 48 h
  EC50: 0.921 µM
  IC50: 806 nM
Cyprids of A. amphitrite; 72 h
  EC50: 101 µM
  IC50: 1190 nM

## CC(=CC=CC1(C)CCC(Br)C(C)(C)O1)C1CCC(C)(O)C(Br)C1 (centres unmarked) [Compound 20, O^11,15-cyclo-14-bromo-14,15-dihydrorogiol-3,11-diol]
In vivo
  LC50 at 72 h: 138 µM
Cyprids of A. amphitrite; 24 h
  EC50: 47 µM
  IC50: 2570 nM
Cyprids of A. amphitrite; 48 h
  EC50: 11.3 µM
  IC50: 2890 nM
Cyprids of A. amphitrite; 72 h
  EC50: 10.1 µM
  IC50: 3320 nM

## C#CC=CCC1OC(C=CC)CC=CCC1Cl (centres unmarked) [Compound 21, (3Ε)-laurenyne]
In vivo
  LC50 at 24 h: 0.575 µM
  LC50 at 48 h: 1.12 µM
  LC50 at 72 h: 18.6 µM
Cyprids of A. amphitrite; 24 h
  EC50: 7.42 µM
  IC50: 3210 nM
Cyprids of A. amphitrite; 48 h
  EC50: 18.2 µM
  IC50: 7370 nM
Cyprids of A. amphitrite; 72 h
  EC50: 0.001 µM
  IC50: 575 nM

## CCC=CCC(Br)C(CC1OC(C=C=CBr)CC1OC(C)=O)OC(C)=O (centres unmarked) [Compound 23, graciosallene]
Cyprids of A. amphitrite; 24 h
  EC50: 0.276 µM
  IC50: 237 nM
Cyprids of A. amphitrite; 48 h
  EC50: 10.3 µM
  IC50: 9180 nM
Cyprids of A. amphitrite; 72 h
  EC50: 11.2 µM
  IC50: 9700 nM
